According to ChEMBL document CHEMBL1201862, “PubChem BioAssay data set” (2004):
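Test compounds were applied to cells in 96-well plates for 48 hours at 5 doses. GI50: concentration for 50% inhibition of growth.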 Calls of active or inactive are those of the source. No stated cut-off is given here; in the data, active = GI50 up to about 1.1 µM and inactive = higher. Where a SMILES comes first, the peptide text is derived from it. [ ]: non-standard residue; d: D form. The star is where a group is joined. ξ: configuration not given here. NMeF = CN[CH](Cc1ccccc1)C(=O)O; ξNMe2Val = CC(C)C(C(=O)*)N(C)C; NMeV = CN[CH](C(=O)O)C(C)C; OtBu = CC(C)(C)O*

Key:
Assay in all cases: inhibition of tumour cell growth, NCI panel, 48 h
DLD-1 = test system: DLD-1
DMS-273 = test system: DMS-273
HOP-18 = test system: HOP-18
KM-20L2 = test system: KM-20L2
LXFL 529 = test system: LXFL 529
M19-MEL = test system: M19-MEL
RXF 631 = test system: RXF 631
SNB-78 = test system: SNB-78
XF498 = test system: XF498

Measured: GI50

Oc1nnc(CNc2ccc(Cl)cc2Cl)c2ccccc12
inactive: DLD-1 21.2 µM | DMS-273 19.5 µM | HOP-18 23.1 µM | KM-20L2 25.6 µM | LXFL 529 17.1 µM | M19-MEL 33 µM | RXF 631 > 100 µM | SNB-78 62.7 µM

N#[N+]c1ccccc1Sc1ccc(Cl)cc1
inactive: DLD-1 > 100 µM | DMS-273 > 100 µM | KM-20L2 > 100 µM | LXFL 529 > 100 µM | M19-MEL > 100 µM | RXF 631 67.9 µM | SNB-78 > 100 µM | XF498 > 100 µM

C[C@]12CC(C=O)C(=O)C(O)=C1CC[C@@H]1C2CC[C@@]2(C)C1CC[C@]2(C)O (stereo partly specified)
inactive: DLD-1 8.55 µM | DMS-273 21.6 µM | KM-20L2 22 µM | LXFL 529 16.6 µM | M19-MEL 20.1 µM | RXF 631 25.6 µM | SNB-78 16.5 µM | XF498 18.2 µM

COC(=O)C12C3C4C1C1C2C3C41I (stereo unspecified)
inactive: DLD-1 > 100 µM | HOP-18 > 100 µM | KM-20L2 > 100 µM | LXFL 529 > 100 µM | M19-MEL > 100 µM | RXF 631 > 100 µM | SNB-78 > 100 µM | XF498 > 100 µM

NC(=O)N/N=C(\CC1OC(=O)c2ccccc21)c1ccc([N+](=O)[O-])cc1 (stereo unspecified)
inactive: DLD-1 22.4 µM | DMS-273 28.1 µM | KM-20L2 29.2 µM | LXFL 529 27.9 µM | M19-MEL 26.5 µM | XF498 26.9 µM

C/C(=C1/CCC/C(=C(/C)c2ccccc2)C1=O)c1ccccc1
inactive: DLD-1 43.4 µM | DMS-273 32 µM | HOP-18 > 100 µM | KM-20L2 40.5 µM | LXFL 529 43.1 µM | M19-MEL 24.9 µM | SNB-78 36.5 µM | XF498 30.6 µM

CNC(=O)NCCN1N=C(C)/C(=C\c2ccccc2)CC1=O
inactive: DLD-1 > 100 µM | DMS-273 > 100 µM | LXFL 529 > 100 µM | M19-MEL > 100 µM | RXF 631 > 100 µM | SNB-78 > 100 µM | XF498 > 100 µM

CCn1c(=O)c2ccccc2n2c(=O)c3cc4ccccc4cc3nc12
inactive: DLD-1 > 100 µM | DMS-273 > 100 µM | KM-20L2 > 100 µM | LXFL 529 > 100 µM | M19-MEL > 100 µM | SNB-78 39.8 µM | XF498 15.8 µM

O=S1(=O)COc2ccccc2-c2ncncc21
inactive: DLD-1 > 100 µM | HOP-18 > 100 µM | KM-20L2 > 100 µM | LXFL 529 > 100 µM | M19-MEL > 100 µM | RXF 631 > 100 µM | SNB-78 > 100 µM

COc1cc2cnc3c4ccccc4ccc3c2cc1OC
inactive: DLD-1 > 100 µM | KM-20L2 > 100 µM | LXFL 529 > 100 µM | M19-MEL > 100 µM | SNB-78 > 100 µM | XF498 > 100 µM

CC(C)N1CCC2(CC1)NNc1ncccc1-n1cccc12
inactive: DLD-1 > 100 µM | DMS-273 > 100 µM | HOP-18 > 100 µM | M19-MEL > 100 µM | SNB-78 > 100 µM | XF498 > 100 µM

Cc1nc(N)nc(CCC(=O)Nc2cccc(C(F)(F)F)c2)c1-c1ccc(Cl)cc1
inactive: DLD-1 > 100 µM | DMS-273 > 100 µM | HOP-18 > 100 µM | KM-20L2 > 100 µM | LXFL 529 > 100 µM | M19-MEL > 100 µM | RXF 631 > 100 µM | SNB-78 > 100 µM | XF498 > 100 µM

CN(C)/C=N\c1ccn(CCO)c(=O)n1
inactive: DLD-1 > 100 µM | DMS-273 > 100 µM | HOP-18 > 100 µM | KM-20L2 > 100 µM | LXFL 529 > 100 µM | M19-MEL > 100 µM | RXF 631 > 100 µM | SNB-78 > 100 µM

CC(=O)NC1=C(NCC(C)C)C(=O)c2ccccc2C1=O
inactive: DLD-1 19 µM | DMS-273 14.4 µM | HOP-18 12.8 µM | KM-20L2 21.2 µM | LXFL 529 16.1 µM | M19-MEL 18.7 µM | SNB-78 31.1 µM | XF498 14 µM

COC(=O)C1Cc2c(n(Cc3ccccc3)c3ccccc23)C(CCC(=O)O)N1C(C)C (stereo unspecified)
inactive: DLD-1 > 100 µM | DMS-273 > 100 µM | HOP-18 > 100 µM | KM-20L2 > 100 µM | LXFL 529 > 100 µM | M19-MEL > 100 µM | RXF 631 > 100 µM | SNB-78 > 100 µM

Cc1ccccc1-c1cc(=O)c2cc(C)c(C)c(C(=O)O)c2o1
inactive: DLD-1 > 100 µM | DMS-273 > 100 µM | HOP-18 > 100 µM | KM-20L2 > 100 µM | LXFL 529 > 100 µM | M19-MEL > 100 µM | RXF 631 > 100 µM | SNB-78 > 100 µM | XF498 71.1 µM

CCCCCCCCCCC(O)[C@H]1CCC(C2CC[C@H]([C@H](O)CCCCCCCCCCC(O)CC3=CC(C)OC3=O)O2)O1 (stereo partly specified)
inactive: DLD-1 3.67 µM | DMS-273 1.6 µM | KM-20L2 3.33 µM | LXFL 529 2.54 µM | M19-MEL 2.22 µM | RXF 631 2.01 µM | SNB-78 2.32 µM

Cc1ccc(S(=O)(=O)N2CCCCC2CCO)cc1 (stereo unspecified)
inactive: DLD-1 > 100 µM | DMS-273 > 100 µM | HOP-18 > 100 µM | KM-20L2 > 100 µM | LXFL 529 > 100 µM | M19-MEL > 100 µM | SNB-78 > 100 µM

O=C(Nc1c(O)[nH]c(=S)[nH]c1=O)c1ccc2ccccc2n1
inactive: DLD-1 > 100 µM | HOP-18 > 100 µM | KM-20L2 > 100 µM | LXFL 529 > 100 µM | M19-MEL > 100 µM | RXF 631 > 100 µM | SNB-78 > 100 µM

CCC(Oc1ccc(OC)c2c1C(=O)CCC2)C(=O)O (stereo unspecified)
inactive: DLD-1 > 100 µM | DMS-273 > 100 µM | LXFL 529 > 100 µM | M19-MEL > 100 µM | SNB-78 > 100 µM | XF498 > 100 µM

COc1ccc(/C=C/C(=O)C(C)C)cc1
inactive: DLD-1 63.1 µM | DMS-273 38.5 µM | HOP-18 41.4 µM | KM-20L2 25.1 µM | LXFL 529 21.7 µM | M19-MEL 59.6 µM | SNB-78 14.9 µM | XF498 > 100 µM

NCCCSCC(=O)O
inactive: DMS-273 > 100 µM | KM-20L2 > 100 µM | LXFL 529 > 100 µM | M19-MEL > 100 µM | SNB-78 > 100 µM

COc1ccc(/C(Cl)=C(\c2ccc(OCCN(C)C)cc2)c2ccc(OC(=O)C(C)(C)C)cc2)cc1
inactive: DLD-1 13.6 µM | DMS-273 5.07 µM | KM-20L2 3.41 µM | LXFL 529 14 µM | M19-MEL 13.7 µM | SNB-78 16.1 µM | XF498 11.5 µM

O=c1cc(-c2ccccc2)oc2cc(OCCCCCCCCCCOc3ccc4c(=O)cc(-c5ccccc5)oc4c3)ccc12
inactive: DMS-273 > 100 µM | HOP-18 > 100 µM | KM-20L2 > 100 µM | LXFL 529 > 100 µM | M19-MEL > 100 µM | RXF 631 > 100 µM | SNB-78 > 100 µM | XF498 > 100 µM

CC(C)C(C(=O)N(C)C(Cc1ccccc1)C(=O)N(C)C(C(=O)N(C)C(C(=O)N1CCCC1C(=O)OC(C)(C)C)C(C)C)C(C)C)N(C)C (stereo unspecified) (ξNMe2Val-[NMeF][NMeV][NMeV]P-OtBu; configuration not given here)
inactive: DMS-273 21 µM | KM-20L2 20.8 µM | LXFL 529 31.8 µM | M19-MEL 78.3 µM | XF498 30.8 µM
